Source: ChEMBL document CHEMBL1126299, “Synthesis and structure-activity relationships of cephalosporins with C-3' catechol-containing residues” (J Med Chem, 1992)
≈ marks a conversion by molar mass, not a printed value.

Test system: not listed separately
Assay: The compound was evaluated for area under the curve in marmosets
Assay type: ADME
Settings: callithrix, in vivo

Row | SMILES | AUC [mg/h/L]
1 | CC(C)(O/N=C(\C(=O)N[C@@H]1C(=O)N2C(C(=O)O)=C(CCOC(=O)c3cc(O)c(O)c(Br)c3)CSC12)c1csc(N)n1)C(=O)O (some centres not stated) | 67.7
2 | CC(C)(O/N=C(\C(=O)N[C@@H]1C(=O)N2C(C(=O)O)=C(CNC(=O)c3ccc(O)c(O)c3)CSC12)c1csc(N)n1)C(=O)O (some centres not stated) | 27.2

Test system: not listed separately
Assay: The half life period in marmosets
Assay type: ADME
Settings: callithrix, in vivo

Row | SMILES | half-life [h]
3 | CC(C)(O/N=C(\C(=O)N[C@@H]1C(=O)N2C(C(=O)O)=C(CCOC(=O)c3cc(O)c(O)c(Br)c3)CSC12)c1csc(N)n1)C(=O)O (some centres not stated) | 1.68
4 | CC(C)(O/N=C(\C(=O)N[C@@H]1C(=O)N2C(C(=O)O)=C(CNC(=O)c3ccc(O)c(O)c3)CSC12)c1csc(N)n1)C(=O)O (some centres not stated) | 1.25

Biological target: Beta-lactamase TEM (Escherichia coli) (UniProt P62593)
Sequence (P62593 whole entry): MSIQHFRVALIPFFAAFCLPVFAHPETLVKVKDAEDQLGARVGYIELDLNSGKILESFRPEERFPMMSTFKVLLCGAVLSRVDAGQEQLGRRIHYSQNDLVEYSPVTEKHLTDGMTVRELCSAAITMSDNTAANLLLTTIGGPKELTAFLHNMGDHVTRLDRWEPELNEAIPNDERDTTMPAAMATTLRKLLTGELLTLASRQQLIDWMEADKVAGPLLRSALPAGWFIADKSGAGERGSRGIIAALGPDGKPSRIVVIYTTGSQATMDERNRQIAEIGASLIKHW
Assay: The dissociation constant of compound was tested for beta-Lactamase stability
Settings: not given

Row | SMILES | pKa
5 | CC(C)(O/N=C(\C(=O)N[C@@H]1C(=O)N2C(C(=O)O)=C(CNC(=O)c3ccc(O)c(O)c3)CSC12)c1csc(N)n1)C(=O)O (some centres not stated) | 8.5

Species on record: Homo sapiens
Assay: Compound is evaluated for serum protein binding in human blood (protein binding in marmoset blood)
Assay type: functional
Settings: not given

Row | SMILES | Activity [%]
6 | CC(C)(O/N=C(\C(=O)N[C@@H]1C(=O)N2C(C(=O)O)=C(CNC(=O)c3ccc(O)c(O)c3)CSC12)c1csc(N)n1)C(=O)O (some centres not stated) | 96.3

Test system: Staphylococcus aureus
Assay: The compound was tested for minimum inhibitory concentration in Staphylococcus aureus Oxford penicillin sensitive Staphylococcus aureus
Assay type: functional
Settings: not given

Row | SMILES | MIC [µg/mL]
7 | CC(C)(O/N=C(\C(=O)N[C@@H]1C(=O)N2C(C(=O)O)=C(CCOC(=O)c3cc(O)c(O)c(Br)c3)CSC12)c1csc(N)n1)C(=O)O (some centres not stated) | 8 (≈ 11.2 µM)

Test system: Staphylococcus aureus
Assay: The compound was tested for minimum inhibitory concentration in Staphylococcus aureus,147N penicillin sensitive Staphylococcus aureus
Assay type: functional
Settings: not given

Row | SMILES | MIC [µg/mL]
8 | CC(C)(O/N=C(\C(=O)N[C@@H]1C(=O)N2C(C(=O)O)=C(CCOC(=O)c3cc(O)c(O)c(Br)c3)CSC12)c1csc(N)n1)C(=O)O (some centres not stated) | 8 (≈ 11.2 µM)

Test system: not listed separately
Assay: The compound was tested for % urinary recovery in marmosets at the dose of 3 mg/kg
Assay type: ADME, organism-based
Set-up: dose 3 mg/kg
Settings: callithrix, urine, read-out: Recovery

Row | SMILES | dose excreted [%]
9 | CC(C)(O/N=C(\C(=O)N[C@@H]1C(=O)N2C(C(=O)O)=C(CNC(=O)c3ccc(O)c(O)c3)CSC12)c1csc(N)n1)C(=O)O (some centres not stated) | 44.8

Test system: not listed separately
Assay: physchem
Settings: not given

Row | SMILES | pKa
10 | CC(C)(O/N=C(\C(=O)N[C@@H]1C(=O)N2C(C(=O)O)=C(CCOC(=O)c3cc(O)c(O)c(Br)c3)CSC12)c1csc(N)n1)C(=O)O (some centres not stated) | 6.5

Test system: Staphylococcus aureus
Assay: microbe, parasite or virus in culture
Settings: not given

Row | SMILES | MIC [µg/mL]
11 | CC(C)(O/N=C(\C(=O)N[C@@H]1C(=O)N2C(C(=O)O)=C(CNC(=O)c3ccc(O)c(O)c3)CSC12)c1csc(N)n1)C(=O)O (some centres not stated) | 16 (≈ 25.8 µM)

Test system: Citrobacter freundii
Assay: microbe, parasite or virus in culture
Settings: not given

Row | SMILES | MIC [µg/mL]
12 | CC(C)(O/N=C(\C(=O)N[C@@H]1C(=O)N2C(C(=O)O)=C(CCOC(=O)c3cc(O)c(O)c(Br)c3)CSC12)c1csc(N)n1)C(=O)O (some centres not stated) | 4 (≈ 5.6 µM)
13 | CC(C)(O/N=C(\C(=O)N[C@@H]1C(=O)N2C(C(=O)O)=C(CNC(=O)c3ccc(O)c(O)c3)CSC12)c1csc(N)n1)C(=O)O (some centres not stated) | 16 (≈ 25.8 µM)

Test system: Citrobacter freundii
Assay: microbe, parasite or virus in culture
Settings: not given
Remark: another data set of the same source

Row | SMILES | MIC [µg/mL]
14 | CC(C)(O/N=C(\C(=O)N[C@@H]1C(=O)N2C(C(=O)O)=C(CCOC(=O)c3cc(O)c(O)c(Br)c3)CSC12)c1csc(N)n1)C(=O)O (some centres not stated) | 0.008 (≈ 0.0112 µM)
15 | CC(C)(O/N=C(\C(=O)N[C@@H]1C(=O)N2C(C(=O)O)=C(CNC(=O)c3ccc(O)c(O)c3)CSC12)c1csc(N)n1)C(=O)O (some centres not stated) | 0.03 (≈ 0.0483 µM)

Test system: Enterobacter cloacae
Assay: microbe, parasite or virus in culture
Settings: not given

Row | SMILES | MIC [µg/mL]
16 | CC(C)(O/N=C(\C(=O)N[C@@H]1C(=O)N2C(C(=O)O)=C(CCOC(=O)c3cc(O)c(O)c(Br)c3)CSC12)c1csc(N)n1)C(=O)O (some centres not stated) | > 128
17 | CC(C)(O/N=C(\C(=O)N[C@@H]1C(=O)N2C(C(=O)O)=C(CNC(=O)c3ccc(O)c(O)c3)CSC12)c1csc(N)n1)C(=O)O (some centres not stated) | > 128

Test system: Escherichia coli
Assay: microbe, parasite or virus in culture
Settings: not given

Row | SMILES | MIC [µg/mL]
18 | CC(C)(O/N=C(\C(=O)N[C@@H]1C(=O)N2C(C(=O)O)=C(CCOC(=O)c3cc(O)c(O)c(Br)c3)CSC12)c1csc(N)n1)C(=O)O (some centres not stated) | 0.008 (≈ 0.0112 µM)
19 | CC(C)(O/N=C(\C(=O)N[C@@H]1C(=O)N2C(C(=O)O)=C(CNC(=O)c3ccc(O)c(O)c3)CSC12)c1csc(N)n1)C(=O)O (some centres not stated) | 0.008 (≈ 0.0129 µM)

Test system: Enterobacter cloacae
Assay: microbe, parasite or virus in culture
Settings: not given
Remark: another data set of the same source

Row | SMILES | MIC [µg/mL]
20 | CC(C)(O/N=C(\C(=O)N[C@@H]1C(=O)N2C(C(=O)O)=C(CCOC(=O)c3cc(O)c(O)c(Br)c3)CSC12)c1csc(N)n1)C(=O)O (some centres not stated) | 2 (≈ 2.8 µM)
21 | CC(C)(O/N=C(\C(=O)N[C@@H]1C(=O)N2C(C(=O)O)=C(CNC(=O)c3ccc(O)c(O)c3)CSC12)c1csc(N)n1)C(=O)O (some centres not stated) | 16 (≈ 25.8 µM)

Test system: Enterobacter cloacae
Assay: microbe, parasite or virus in culture
Settings: not given
Remark: another data set of the same source

Row | SMILES | MIC [µg/mL]
22 | CC(C)(O/N=C(\C(=O)N[C@@H]1C(=O)N2C(C(=O)O)=C(CCOC(=O)c3cc(O)c(O)c(Br)c3)CSC12)c1csc(N)n1)C(=O)O (some centres not stated) | 0.03 (≈ 0.042 µM)
23 | CC(C)(O/N=C(\C(=O)N[C@@H]1C(=O)N2C(C(=O)O)=C(CNC(=O)c3ccc(O)c(O)c3)CSC12)c1csc(N)n1)C(=O)O (some centres not stated) | 0.125 (≈ 0.201 µM)

Test system: Enterobacter cloacae
Assay: microbe, parasite or virus in culture
Settings: not given
Remark: another data set of the same source

Row | SMILES | MIC [µg/mL]
24 | CC(C)(O/N=C(\C(=O)N[C@@H]1C(=O)N2C(C(=O)O)=C(CCOC(=O)c3cc(O)c(O)c(Br)c3)CSC12)c1csc(N)n1)C(=O)O (some centres not stated) | 0.03 (≈ 0.042 µM)
25 | CC(C)(O/N=C(\C(=O)N[C@@H]1C(=O)N2C(C(=O)O)=C(CNC(=O)c3ccc(O)c(O)c3)CSC12)c1csc(N)n1)C(=O)O (some centres not stated) | 0.125 (≈ 0.201 µM)

Test system: Escherichia coli
Assay: microbe, parasite or virus in culture
Settings: not given
Remark: another data set of the same source

Row | SMILES | MIC [µg/mL]
26 | CC(C)(O/N=C(\C(=O)N[C@@H]1C(=O)N2C(C(=O)O)=C(CCOC(=O)c3cc(O)c(O)c(Br)c3)CSC12)c1csc(N)n1)C(=O)O (some centres not stated) | 0.008 (≈ 0.0112 µM)
27 | CC(C)(O/N=C(\C(=O)N[C@@H]1C(=O)N2C(C(=O)O)=C(CNC(=O)c3ccc(O)c(O)c3)CSC12)c1csc(N)n1)C(=O)O (some centres not stated) | 0.008 (≈ 0.0129 µM)

Test system: Pseudomonas aeruginosa
Assay: microbe, parasite or virus in culture
Settings: not given

Row | SMILES | MIC [µg/mL]
28 | CC(C)(O/N=C(\C(=O)N[C@@H]1C(=O)N2C(C(=O)O)=C(CCOC(=O)c3cc(O)c(O)c(Br)c3)CSC12)c1csc(N)n1)C(=O)O (some centres not stated) | 0.008 (≈ 0.0112 µM)
29 | CC(C)(O/N=C(\C(=O)N[C@@H]1C(=O)N2C(C(=O)O)=C(CNC(=O)c3ccc(O)c(O)c3)CSC12)c1csc(N)n1)C(=O)O (some centres not stated) | 0.008 (≈ 0.0129 µM)

Test system: Pseudomonas aeruginosa
Assay: microbe, parasite or virus in culture
Settings: not given
Remark: another data set of the same source

Row | SMILES | MIC [µg/mL]
30 | CC(C)(O/N=C(\C(=O)N[C@@H]1C(=O)N2C(C(=O)O)=C(CCOC(=O)c3cc(O)c(O)c(Br)c3)CSC12)c1csc(N)n1)C(=O)O (some centres not stated) | 0.008 (≈ 0.0112 µM)
31 | CC(C)(O/N=C(\C(=O)N[C@@H]1C(=O)N2C(C(=O)O)=C(CNC(=O)c3ccc(O)c(O)c3)CSC12)c1csc(N)n1)C(=O)O (some centres not stated) | 0.015 (≈ 0.0242 µM)

Test system: Pseudomonas aeruginosa
Assay: microbe, parasite or virus in culture
Settings: not given
Remark: another data set of the same source

Row | SMILES | MIC [µg/mL]
32 | CC(C)(O/N=C(\C(=O)N[C@@H]1C(=O)N2C(C(=O)O)=C(CCOC(=O)c3cc(O)c(O)c(Br)c3)CSC12)c1csc(N)n1)C(=O)O (some centres not stated) | 0.03 (≈ 0.042 µM)
33 | CC(C)(O/N=C(\C(=O)N[C@@H]1C(=O)N2C(C(=O)O)=C(CNC(=O)c3ccc(O)c(O)c3)CSC12)c1csc(N)n1)C(=O)O (some centres not stated) | 0.06 (≈ 0.0967 µM)

Test system: Pseudomonas aeruginosa
Assay: microbe, parasite or virus in culture
Settings: not given
Remark: another data set of the same source

Row | SMILES | MIC [µg/mL]
34 | CC(C)(O/N=C(\C(=O)N[C@@H]1C(=O)N2C(C(=O)O)=C(CCOC(=O)c3cc(O)c(O)c(Br)c3)CSC12)c1csc(N)n1)C(=O)O (some centres not stated) | 0.008 (≈ 0.0112 µM)
35 | CC(C)(O/N=C(\C(=O)N[C@@H]1C(=O)N2C(C(=O)O)=C(CNC(=O)c3ccc(O)c(O)c3)CSC12)c1csc(N)n1)C(=O)O (some centres not stated) | 0.008 (≈ 0.0129 µM)

Test system: Providencia stuartii
Assay: microbe, parasite or virus in culture
Settings: not given

Row | SMILES | MIC [µg/mL]
36 | CC(C)(O/N=C(\C(=O)N[C@@H]1C(=O)N2C(C(=O)O)=C(CCOC(=O)c3cc(O)c(O)c(Br)c3)CSC12)c1csc(N)n1)C(=O)O (some centres not stated) | 2 (≈ 2.8 µM)
37 | CC(C)(O/N=C(\C(=O)N[C@@H]1C(=O)N2C(C(=O)O)=C(CNC(=O)c3ccc(O)c(O)c3)CSC12)c1csc(N)n1)C(=O)O (some centres not stated) | 1 (≈ 1.61 µM)

Test system: Providencia stuartii
Assay: microbe, parasite or virus in culture
Settings: not given
Remark: another data set of the same source

Row | SMILES | MIC [µg/mL]
38 | CC(C)(O/N=C(\C(=O)N[C@@H]1C(=O)N2C(C(=O)O)=C(CCOC(=O)c3cc(O)c(O)c(Br)c3)CSC12)c1csc(N)n1)C(=O)O (some centres not stated) | 0.03 (≈ 0.042 µM)
39 | CC(C)(O/N=C(\C(=O)N[C@@H]1C(=O)N2C(C(=O)O)=C(CNC(=O)c3ccc(O)c(O)c3)CSC12)c1csc(N)n1)C(=O)O (some centres not stated) | 0.25 (≈ 0.403 µM)

Test system: Staphylococcus aureus
Assay: microbe, parasite or virus in culture
Settings: not given
Remark: another data set of the same source

Row | SMILES | MIC [µg/mL]
40 | CC(C)(O/N=C(\C(=O)N[C@@H]1C(=O)N2C(C(=O)O)=C(CNC(=O)c3ccc(O)c(O)c3)CSC12)c1csc(N)n1)C(=O)O (some centres not stated) | 8 (≈ 12.9 µM)

Test system: Pseudomonas aeruginosa
Assay: microbe, parasite or virus in culture
Settings: not given
Remark: another data set of the same source

Row | SMILES | MIC [µg/mL]
41 | CC(C)(O/N=C(\C(=O)N[C@@H]1C(=O)N2C(C(=O)O)=C(CCOC(=O)c3cc(O)c(O)c(Br)c3)CSC12)c1csc(N)n1)C(=O)O (some centres not stated) | 0.008 (≈ 0.0112 µM)
42 | CC(C)(O/N=C(\C(=O)N[C@@H]1C(=O)N2C(C(=O)O)=C(CNC(=O)c3ccc(O)c(O)c3)CSC12)c1csc(N)n1)C(=O)O (some centres not stated) | 0.008 (≈ 0.0129 µM)
